Measured values published in patent US8030478B2, “Method for nucleic acid replication and novel artificial base pairs” (priority 2005, dated 2011).
Where two headings read alike, the source gives them in different places.

Assays:
[1] = molecular target: T7 RNA polymerase (Escherichia phage T7, UniProt P00573); conditions: for transcripts biotinylated (incorporation rate): DNA6 template obtained by ligation; for misincorporation opposite natural bases, yield of biotinylated transcripts / misincorporation per base position in the 152-mer transcripts: DNAcont2 template
Experimental: 152-mer RNAs transcribed with Bio-PaTP from DNA6 template obtained by ligation and DNAcont2 template obtained by PCR amplification (20 cycles), as well as 152-mer RNAs transcribed with biotinylated UTP (Bio-UTP) from DNAcont5 and DNAcont6 templates obtained by ligation were mixed with streptavidin. Biotinylated RNA-streptavidin complexes were separated from free RNAs on a 7% polyacrylamide-7 M urea gel, and the percentages (yields) of the complexes were determined from their band intensity.
Transcription (20 μl) was performed for 6 hours at 37° C. using 3 μCi [γ-^32P]GTP, 2 mM each natural NTP, 0-4 mM Bio-PaTP (biotinylated Pa substrate: chemically synthesized as shown in Example IV), and 30 nM template (DNA6 and DNAcont2 (see FIG. 6), obtained by both ligation and PCR amplification).
For control reactions using DNAcont5 and DNAcont6 obtained by ligation (see FIG. 6), transcription was performed only with 2 mM ATP, GTP and CTP in the presence or absence of 2 mM Bio-UTP (biotin-16-uridine-5′-triphosphate, Roche Applied Science). The products were analyzed and purified on a 7-10% polyacrylamide-7 M urea gel.
The biotinylated RNA transcripts were detected by gel shift assay using streptavidin. A mixture (10 μl) of 2 pmol ^32P-labeled transcript and 100 pmol streptavidin (Promega) was incubated at 20° C. for 1 hour in 10 mM Tris-HCl buffer (pH 7.6) containing 50 mM NaCl and 10 mM EDTA. The biotinylated RNA-streptavidin complexes were analyzed by electrophoresis on a 7% polyacrylamide-7 M urea gel. To determine the position where Bio-Pa was introduced, each RNA (152-mer) was labeled with [γ-^32P]ATP (Perkin Elmer) after 5′-dephosphorylation with calf intestinal alkaline phosphatase (Takara). The labeled RNA was partially digested with RNase T1 at 55° C. for 12 minutes in 13.3 mM sodium citrate buffer (pH 5.0) containing 4.7 M urea, 0.7 mM EDTA and 0.17 mg/ml E. coli tRNA, or with alkali at 90° C. for 15 minutes in 32 mM sodium carbonate buffer (pH 9.1) containing 0.6 mM EDTA. The alkali-digested RNA solution (9 μl) was mixed with 11 μl of 20 mM Tris-HCl buffer (pH 7.6) containing 150 mM NaCl, and the mixture (10 μl) was then incubated with streptavidin magnetic beads (0.4 mg) (New England BioLabs) for 5 minutes at room temperature to capture the biotinylated RNA. An aliquot (5 μl) of the supernatant was analyzed together with other digested samples on a 10% polyacrylamide-7 M urea gel.

[2] = molecular target: T1, Klenow fragment lacking exonuclease activity (KF exo−) (Escherichia coli, UniProt P00582, D355A/E357A); type: biochemical, E. coli; conditions: for Efficiency (Vmax/KM) / Km / Vmax: 37° C.; for inserted products (KM, Vmax n.d.): 20 minutes, 1500 μM nucleoside 5′-triphosphate, 50 nM enzyme
T1 construct: enzyme solution of the Klenow fragment lacking exonuclease activity (KF exo^−, Amersham USB); purchased Amersham USB
Experimental: The single nucleotide insertion experiment was performed as described in documents (Non-patent Documents 30-32). A primer (20-mer) labeled with 6-carboxylfluorescein at the 5′-end was annealed with template DNA (35-mer) by heating at 95° C. and slow cooling to 4° C. in 100 mM Tris-HCl (pH 7.5) buffer containing 20 mM MgCl2, 2 mM DTT and 0.1 mg/ml bovine serum albumin. The primer-template duplex solution (10 μM, 5 μl) was mixed with 2 μl enzyme solution of the Klenow fragment lacking exonuclease activity (KF exo^−, Amersham USB). After the mixture was incubated for 2 minutes, each dNTP solution (3 μl) was added to this solution to start the reaction at 37° C. The amount of the enzyme used (5-50 nM), the reaction time (1-35 minutes) and the gradient concentration of each dNTP (0.3-1500 μM) were adjusted to ensure conditions giving 25% or less products. The reaction was stopped with 10 μl stop solution (95% formamide and 20 mM EDTA), and the mixture was immediately heated at 75° C. for 3 minutes. The diluted products were analyzed in an automated ABI377 DNA sequencer equipped with GeneScan software (version 3.0) (Non-patent Document 32). The relative velocity (v0) was calculated by dividing the extent of reaction by the reaction time, and then normalized to the enzyme concentration (20 nM) for the various enzyme concentrations used. Kinetic parameters (KM and Vmax) were obtained from Hanes-Woolf plots of [dNTP]/v0 against [dNTP].
Each parameter was averaged from 3 to 8 data sets.

[3] = test system: Klenow fragment (KF exo+ / KF exo−); conditions: FIG. 2e
Experimental: (§1) [FIG. 2d] FIGS. 2a to 2e show single nucleotide insertion and primer extension experiments with an unnatural base pair system based on Ds-Pa base pairing.
(§2) [FIG. 2e] FIGS. 2a to 2e show single nucleotide insertion and primer extension experiments with an unnatural base pair system based on Ds-Pa base pairing.
(§3) A 5′-^32P-labeled primer (23-mer) and template DNA (35-mer) were annealed into duplex form in 20 mM Tris-HCl (pH 7.5) buffer containing 14 mM MgCl2 and 0.2 mM DTT. The duplex solution (400 nM, 5 μl) was mixed with each 5× dNTP solution (2 μl) on ice, followed by addition of 3 μl enzyme solution containing KF exo^− (1 unit) or KF exo^+ (1 unit) (TAKARA) to start the reaction. After the reaction solution was incubated at 37° C. for 3 or 5 minutes, a dye solution (10 μl) containing 89 mM Tris-borate, 2 mM EDTA, 10 M urea and 0.05% BPB was added to stop the reaction. […] The products on the gel were analyzed with a bio-imaging analyzer (model BAS2500, Fuji).

[4] = molecular target: Klenow fragment (KF exo+ / KF exo−) (Escherichia coli, UniProt P00582); conditions: dPaTP and natural substrates in the presence of the named substrate (0.5 or 1 molar equivalent of dPaTP); FIG. 2d
Experimental: as §1, §2, §3

T7 RNA polymerase, sequence (P00573 whole entry, the tested form may be a part): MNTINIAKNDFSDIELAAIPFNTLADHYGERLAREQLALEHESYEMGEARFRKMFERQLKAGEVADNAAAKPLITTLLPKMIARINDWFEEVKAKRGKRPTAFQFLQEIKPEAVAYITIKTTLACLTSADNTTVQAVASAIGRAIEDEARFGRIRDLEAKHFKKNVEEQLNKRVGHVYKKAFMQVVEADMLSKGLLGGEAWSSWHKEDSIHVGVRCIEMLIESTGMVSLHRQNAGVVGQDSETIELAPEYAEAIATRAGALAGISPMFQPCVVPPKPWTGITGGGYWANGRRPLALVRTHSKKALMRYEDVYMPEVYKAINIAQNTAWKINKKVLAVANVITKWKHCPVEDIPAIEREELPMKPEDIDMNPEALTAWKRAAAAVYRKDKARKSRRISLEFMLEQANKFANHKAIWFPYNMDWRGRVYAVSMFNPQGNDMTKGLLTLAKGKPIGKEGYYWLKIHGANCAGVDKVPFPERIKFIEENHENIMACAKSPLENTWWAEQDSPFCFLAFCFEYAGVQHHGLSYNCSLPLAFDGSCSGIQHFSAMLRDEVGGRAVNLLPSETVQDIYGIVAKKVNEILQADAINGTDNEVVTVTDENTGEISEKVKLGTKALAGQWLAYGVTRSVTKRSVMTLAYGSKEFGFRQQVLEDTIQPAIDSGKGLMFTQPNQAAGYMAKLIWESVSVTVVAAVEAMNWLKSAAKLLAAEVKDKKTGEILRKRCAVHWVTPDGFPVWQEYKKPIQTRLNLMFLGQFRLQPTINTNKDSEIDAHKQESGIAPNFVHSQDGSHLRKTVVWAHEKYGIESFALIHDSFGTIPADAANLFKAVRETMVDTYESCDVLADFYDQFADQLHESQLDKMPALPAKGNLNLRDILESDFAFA
T1 sequence (P00582 324-928 D355A/E357A): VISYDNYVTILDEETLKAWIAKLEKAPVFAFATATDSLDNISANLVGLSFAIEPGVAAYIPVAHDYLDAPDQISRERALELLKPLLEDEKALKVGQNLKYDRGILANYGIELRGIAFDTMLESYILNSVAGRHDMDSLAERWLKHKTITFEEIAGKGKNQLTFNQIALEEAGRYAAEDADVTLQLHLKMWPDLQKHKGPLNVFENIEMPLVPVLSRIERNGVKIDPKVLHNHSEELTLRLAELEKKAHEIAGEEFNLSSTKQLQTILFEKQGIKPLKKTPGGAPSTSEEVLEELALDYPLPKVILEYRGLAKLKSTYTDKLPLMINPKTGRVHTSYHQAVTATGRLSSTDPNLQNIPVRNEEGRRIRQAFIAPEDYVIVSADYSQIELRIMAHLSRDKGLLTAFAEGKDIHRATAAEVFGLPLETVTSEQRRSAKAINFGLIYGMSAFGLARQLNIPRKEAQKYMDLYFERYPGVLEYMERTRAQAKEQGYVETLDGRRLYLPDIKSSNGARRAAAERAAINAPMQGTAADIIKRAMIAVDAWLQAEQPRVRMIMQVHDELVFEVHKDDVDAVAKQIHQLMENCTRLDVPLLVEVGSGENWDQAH
Klenow fragment (KF exo+ / KF exo−) (Escherichia coli, UniProt P00582), sequence (P00582 324-928): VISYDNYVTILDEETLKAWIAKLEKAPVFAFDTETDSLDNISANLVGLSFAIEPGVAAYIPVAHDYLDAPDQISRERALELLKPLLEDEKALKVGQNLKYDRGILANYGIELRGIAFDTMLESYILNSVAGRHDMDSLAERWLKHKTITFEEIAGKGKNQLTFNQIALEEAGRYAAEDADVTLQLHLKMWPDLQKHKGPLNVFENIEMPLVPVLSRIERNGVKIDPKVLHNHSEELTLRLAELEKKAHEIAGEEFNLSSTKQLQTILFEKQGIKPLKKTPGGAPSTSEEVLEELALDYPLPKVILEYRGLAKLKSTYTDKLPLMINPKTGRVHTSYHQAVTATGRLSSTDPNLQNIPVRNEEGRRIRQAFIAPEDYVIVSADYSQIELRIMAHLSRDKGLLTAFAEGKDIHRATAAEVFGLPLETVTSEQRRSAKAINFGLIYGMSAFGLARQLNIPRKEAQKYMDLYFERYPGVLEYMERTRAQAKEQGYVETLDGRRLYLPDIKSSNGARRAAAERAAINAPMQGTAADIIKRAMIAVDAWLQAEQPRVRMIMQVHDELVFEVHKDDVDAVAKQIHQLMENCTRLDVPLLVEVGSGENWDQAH

Molecule | Efficiency (Vmax/KM) ([2]; template (N) = C, temp35N-2) | Km ([2]; template (N) = C, temp35N-2) | Vmax ([2]; template (N) = C, temp35N-2) | Efficiency (Vmax/KM) ([2]; template (N) = Ds, temp35N-1) | Km ([2]; template (N) = Ds, temp35N-1) | Vmax ([2]; template (N) = Ds, temp35N-1) | Efficiency (Vmax/KM) ([2]; template (N) = Pa, temp35N-2) | Km ([2]; template (N) = Pa, temp35N-2) | Vmax ([2]; template (N) = Pa, temp35N-2) | Efficiency (Vmax/KM) ([2]; template (N) = Pa′, temp35N-2) | Km ([2]; template (N) = Pa′, temp35N-2) | Vmax ([2]; template (N) = Pa′, temp35N-2) | Efficiency (Vmax/KM) ([2]; template (N) = T, temp35N-2) | Km ([2]; template (N) = T, temp35N-2) | Vmax ([2]; template (N) = T, temp35N-2) | Efficiency (Vmax/KM) ([2]; template (N) = A, temp35N-1) | Km ([2]; template (N) = A, temp35N-1) | Vmax ([2]; template (N) = A, temp35N-1) | Efficiency (Vmax/KM) ([2]; template (N) = G, temp35N-1) | Km ([2]; template (N) = G, temp35N-1) | further results
O=Cc1cc(C#CCNC(=O)CCCC[C@@H]2SC[C@@H]3NC(=O)N[C@@H]32)cn1[C@@H]1O[C@H](COP(=O)(O)OP(=O)(O)OP(=O)(O)O)[C@@H](O)[C@H]1O [Bio-PaTP, 1-(β-D-ribofuranosyl)-4-[(3-biotinamido-1-propynyl)]pyrrole-2-carbaldehyde 5′-triphosphate] |  |  |  |  |  |  |  |  |  |  |  |  |  |  |  |  |  |  |  |  | transcripts biotinylated (incorporation rate) ([1]; 2 mM Bio-PaTP): 90%; transcripts biotinylated (incorporation rate) ([1]; 4 mM Bio-PaTP): 96%; misincorporation opposite natural bases, yield of biotinylated transcripts ([1]; 2 mM Bio-PaTP): 9%; misincorporation per base position in the 152-mer transcripts ([1]; 2 mM Bio-PaTP): 0.06%; misincorporation opposite natural bases, yield of biotinylated transcripts ([1]; 4 mM Bio-PaTP): 16%; misincorporation per base position in the 152-mer transcripts ([1]; 4 mM Bio-PaTP): 0.12%; reduction of incorporation rate with template obtained by PCR amplification ([1]; template from PCR (20 cycles), FIG. 44d, Lanes 9 and 11): 3-4%
Nc1ncnc2c1ncn2[C@H]1C[C@H](O)[C@@H](COP(=O)(O)OP(=O)(O)OP(N)(=O)O)O1 [dATPN, 6-Amino-9-(2-deoxy-β-D-ribofuranosyl)purine 5′-γ-amidotriphosphate] | 3.4 × 10^2 % min^−1M^−1 | 590 µM | 0.20 % min^−1 | 3.2 × 10^2 % min^−1M^−1 | 150 µM | 0.048 % min^−1 | 1.8 × 10^3 % min^−1M^−1 | 1200 µM | 2.2 % min^−1 | 3.0 × 10^3 % min^−1M^−1 | 800 µM | 2.4 % min^−1 | 2.5 × 10^5 % min^−1M^−1 | 13 µM | 3.2 % min^−1 |  |  |  |  |  | extension reaction after misincorporation opposite template Pa, compared to dATP ([3]; Lanes 4 and 5): significantly reduced efficiency; primer extension after incorporation of the substrate ([3]; dDsTPN opposite template Pa, dATPN opposite template T, Lanes 2 and 14): proceeded efficiently
O=P(O)(O)OP(=O)(O)OP(=O)(O)OC[C@H]1O[C@@H](n2cnc3c(-c4cccs4)ccnc32)C[C@@H]1O [dDsTP, 7-(2-Thienyl)-3-(2-deoxy-β-ribofuranosyl)-3H-imidazo[4,5-b]pyridine 5′-triphosphate] | 2.8 × 10^4 % min^−1M^−1 | 47 µM | 1.3 % min^−1 | 2.0 × 10^5 % min^−1M^−1 | 8 µM | 1.6 % min^−1 | 1.1 × 10^4 % min^−1M^−1 | 26 µM | 28 % min^−1 | 8.8 × 10^5 % min^−1M^−1 | 24 µM | 21 % min^−1 | 8.7 × 10^4 % min^−1M^−1 | 45 µM | 3.9 % min^−1 |  |  |  |  |  | Efficiency (Vmax/KM) ([2]; template (N) = A, temp35N-2): 3.6 × 10^4 % min^−1M^−1; Km ([2]; template (N) = A, temp35N-2): 33 µM; Vmax ([2]; template (N) = A, temp35N-2): 1.2 % min^−1; Efficiency (Vmax/KM) ([2]; template (N) = G, temp35N-2): 4.1 × 10^4 % min^−1M^−1; Km ([2]; template (N) = G, temp35N-2): 37 µM; Vmax ([2]; template (N) = G, temp35N-2): 1.5 % min^−1; primer extension with KF exo+ on Ds-containing template [4]: inhibited
Nc1nc2c(ncn2[C@H]2C[C@H](O)[C@@H](COP(=O)(O)OP(=O)(O)OP(=O)(O)O)O2)c(=O)[nH]1 [dGTP, reference compound] | 7.0 × 10^6 % min^−1M^−1 | 2.3 µM | 16 % min^−1 |  |  |  | 8.8 × 10^2 % min^−1M^−1 | 480 µM | 0.42 % min^−1 | 5.5 × 10^2 % min^−1M^−1 | 800 µM | 0.44 % min^−1 | 2.9 × 10^3 % min^−1M^−1 | 420 µM | 12 % min^−1 |  |  |  |  |  | inserted products (KM, Vmax n.d.) ([2]; template (N) = Ds, temp35N-1): n.d.^c (Minimal inserted products (<2%) were detected after incubation for 20 minutes with 1500 μM nucleoside 5′-triphosphate and 50 nM enzyme.)
O=Cc1cccn1[C@H]1C[C@H](O)[C@@H](COP(=O)(O)OP(=O)(O)OP(=O)(O)O)O1 [dPaTP] |  |  |  | 6.2 × 10^4 % min^−1M^−1 | 340 µM | 21 % min^−1 | 1.5 × 10^3 % min^−1M^−1 | 380 µM | 0.56 % min^−1 |  |  |  |  |  |  | 5.2 × 10^4 % min^−1M^−1 | 330 µM | 17 % min^−1 | 4.4 × 10^2 % min^−1M^−1 | 140 µM | inserted products (KM, Vmax n.d.) ([2]; template (N) = C, temp35N-1): n.d. (Minimal inserted products (<2%) were detected after incubation for 20 minutes with 1500 μM nucleoside 5′-triphosphate and 50 nM enzyme.); Vmax ([2]; template (N) = G, temp35N-1): 0.061 % min^−1; Efficiency (Vmax/KM) ([2]; template (N) = T, temp35N-1): 3.1 × 10^2 % min^−1M^−1; Km ([2]; template (N) = T, temp35N-1): 170 µM; Vmax ([2]; template (N) = T, temp35N-1): 0.053 % min^−1
CC#Cc1cc(C=O)n([C@H]2C[C@H](O)[C@@H](COP(=O)(O)OP(=O)(O)OP(=O)(O)O)O2)c1 [dPa′TP] |  |  |  | 2.6 × 10^5 % min^−1M^−1 | 82 µM | 21 % min^−1 |  |  |  | 4.1 × 10^4 % min^−1M^−1 | 190 µM | 7.8 % min^−1 |  |  |  | 1.8 × 10^5 % min^−1M^−1 | 110 µM | 20 % min^−1 | 1.6 × 10^3 % min^−1M^−1 | 80 µM | efficiency of incorporation opposite Ds in the template relative to that of dPaTP ([2]; KF exo−, template Ds): 3.9 fold; Efficiency (Vmax/KM) ([2]; template (N) = C, temp35N-1): 7.4 × 10^2 % min^−1M^−1; Km ([2]; template (N) = C, temp35N-1): 80 µM; Vmax ([2]; template (N) = C, temp35N-1): 0.059 % min^−1; Vmax ([2]; template (N) = G, temp35N-1): 0.13 % min^−1; Efficiency (Vmax/KM) ([2]; template (N) = T, temp35N-1): 1.6 × 10^3 % min^−1M^−1; Km ([2]; template (N) = T, temp35N-1): 120 µM; Vmax ([2]; template (N) = T, temp35N-1): 0.19 % min^−1
Cc1cn([C@H]2C[C@H](O)[C@@H](COP(=O)(O)OP(=O)(O)OP(=O)(O)O)O2)c(=O)[nH]c1=O [dTTP, reference compound] |  |  |  | 1.9 × 10^3 % min^−1M^−1 | 220 µM | 0.41 % min^−1 | 1.1 × 10^2 % min^−1M^−1 | 880 µM | 0.097 % min^−1 | 1.0 × 10^2 % min^−1M^−1 | 1400 µM | 0.14 % min^−1 |  |  |  | 4.0 × 10^6 % min^−1M^−1 | 0.7 µM | 2.8 % min^−1 | 2.1 × 10^3 % min^−1M^−1 | 140 µM | Vmax ([2]; template (N) = G, temp35N-1): 0.29 % min^−1
biotin-16-uridine-5′-triphosphate [Bio-UTP, reference compound] |  |  |  |  |  |  |  |  |  |  |  |  |  |  |  |  |  |  |  |  | biotinylation of transcripts by incorporation opposite A ([1]; DNAcont5 template, 2 mM Bio-UTP, 2 mM ATP, GTP and CTP): completely biotinylated; transcripts biotinylated by misincorporation opposite bases G, C and T ([1]; DNAcont6 template, 2 mM Bio-UTP, 2 mM ATP, GTP and CTP): 21%
dATP [reference compound] | 4.6 × 10^3 % min^−1M^−1 | 500 µM | 2.3 % min^−1 | 2.4 × 10^3 % min^−1M^−1 | 150 µM | 0.36 % min^−1 | 4.3 × 10^4 % min^−1M^−1 | 490 µM | 21 % min^−1 | 3.7 × 10^4 % min^−1M^−1 | 570 µM | 21 % min^−1 | 4.1 × 10^6 % min^−1M^−1 | 0.81 µM | 3.3 % min^−1 |  |  |  |  |  | 
